Dmax and DC50 data for 19 compounds are collected here from US12448399B2, “Cereblon-based KRAS degrading PROTACs and uses related thereto” (Arvinas Operations, Inc., priority 2023, dated 2025).

Each structure is given as a SMILES string.

This assay addresses T1, KRas-G12D (Homo sapiens, UniProt P01116, G12D).
T1 construct: insert the HiBiT tag onto the N-terminus of one or more of the endogenous KRas alleles; host or cells: AsPC-1 HiBiT-KRasG12D knock-in clone (one tagged allele, two untagged KRasG12D alleles)
Kind of assay: HiBiT Degradation Assay (G12D), AsPC-1 HiBiT-KRasG12D cells, 24 hr. Format: cell-based. Conditions: for Dmax: ASPC1, AsPC-1 cells, maximum degradation observed; for DC50: AsPC-1 cells. The method in brief: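 AsPC-1 cells with CRISPR N-terminal HiBiT knock-in on one endogenous KRasG12D allele, treated 24 hr at 37° C with compound titrations in 0.5% DMSO. Lytic HiBiT luminescence normalized to DMSO, fitted to a 4-parameter model for DC50 and Dmax. Parallel alamar blue (4 hr) checked viability.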
(In general: With HiBiT, luminescence reflects the tagged protein that the partner subunit can reach.)

T1 sequence (P01116 1-188 isoform P01116-2 G12D): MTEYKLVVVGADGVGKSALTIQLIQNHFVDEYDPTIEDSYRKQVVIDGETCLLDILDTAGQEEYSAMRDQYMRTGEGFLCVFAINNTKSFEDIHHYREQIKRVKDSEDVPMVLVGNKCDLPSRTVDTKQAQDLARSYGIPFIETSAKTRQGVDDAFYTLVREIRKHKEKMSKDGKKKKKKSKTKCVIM

As to `CCc1cccc2cc(O)cc(-c3ncc4c(N5CC6CCC(C5)N6)nc(OC[C@@]56CCCN5[C@H](COC(=O)N5CCN(c7ccc8c(c7)CN(C7CCC(=O)N(C)C7=O)C8=O)CC5)CC6)nc4c3F)c12` (stereo partly drawn) [Compound 50, [(3S,8S)-8-[[4-(3,8-diazabicyclo[3.2.1]octan-3-yl)-7-(8-ethyl-3-hydroxy-1-naphthyl)-8-fluoro-pyrido[4,3-d]pyrimidin-2-yl]oxymethyl]-1,2,3,5,6,7-hexahydropyrrolizin-3-yl]methyl4-[2-(1-methyl-2,6-dioxo-3-piperidyl)-1-oxo-isoindolin-5-yl]piperazine-1-carboxylate], the Dmax – broadly, the largest share of the target that was removed – was ≤ 25% and the DC50 (usually the concentration at which degradation of the target reaches its halfway point) is < 5.1 µM.
With `C#Cc1c(F)ccc2cc(O)cc(-c3ncc4c(N5CC6CCC(C5)N6)nc(OCCN5CCC(CN6CCN(CC7CCN(c8ccc9c(c8F)CN(C8CCC(=O)NC8=O)C9=O)CC7)CC6)CC5)nc4c3F)c12` (centres unmarked) [Compound 101, 3-[5-[4-[[4-[[1-[2-[4-(3,8-diazabicyclo[3.2.1]octan-3-yl)-7-(8-ethynyl-7-fluoro-3-hydroxy-1-naphthyl)-8-fluoro-pyrido[4,3-d]pyrimidin-2-yl]oxyethyl]-4-piperidyl]methyl]piperazin-1-yl]methyl]-1-piperidyl]-4-fluoro-1-oxo-isoindolin-2-yl]piperidine-2,6-dione], the Dmax was > 70% and the DC50 was < 5.1 µM.
The corresponding values for `C#Cc1c(F)ccc2cc(O)cc(-c3ncc4c(N5CC6CCC(C5)N6)nc(OCCN5CCC(CN6CCN(CC7CCN(c8ccc9c(c8F)CN(C8CCC(=O)NC8=O)C9=O)CC7)CC6(C)C)CC5)nc4c3F)c12` (centres unmarked) [Compound 239, 3-[5-[4-[[4-[[1-[2-[4-(3,8-diazabicyclo[3.2.1]octan-3-yl)-7-(8-ethynyl-7-fluoro-3-hydroxy-1-naphthyl)-8-fluoro-pyrido[4,3-d]pyrimidin-2-yl]oxyethyl]-4-piperidyl]methyl]-3,3-dimethyl-piperazin-1-yl]methyl]-1-piperidyl]-4-fluoro-1-oxo-isoindolin-2-yl]piperidine-2,6-dione] are > 70% and < 5.1 µM.
The corresponding values for `C#Cc1c(F)ccc2cc(O)cc(-c3ncc4c(N5CC6CCC(C5)N6)nc(OCCN5CCC(CC6CCN(CC7CCN(c8cc(F)cc9c8CN(C8CCC(=O)NC8=O)C9=O)CC7)CC6)CC5)nc4c3F)c12` (centres unmarked) [Compound 130, 3-{4-[4-({4-[(1-{2-[(4-{3,8-diazabicyclo[3.2.1]octan-3-yl}-7-(8-ethynyl-7-fluoro-3-hydroxynaphthalen-1-yl)-8-fluoropyrido[4,3-d]pyrimidin-2-yl)oxy]ethyl}piperidin-4-yl)methyl]piperidin-1-yl}methyl)piperidin-1-yl]-6-fluoro-1-oxo-2,3-dihydro-1H-isoindol-2-yl}piperidine-2,6-dione] are > 70% and < 5.1 µM.
Consider `C#Cc1c(F)ccc2cc(O)cc(-c3ncc4c(N5CC6CCC(C5)N6)nc(OCCN5CCC6(CC5)CCN(CC5CCN(c7ccc8c(c7)C(=O)N(C7CCC(=O)NC7=O)C8=O)CC5)CC6)nc4c3F)c12` (centres unmarked) [Compound 76], for which the Dmax is > 70% and the DC50 is < 5.1 µM.
The corresponding values for `C#Cc1c(F)ccc2cc(O)cc(-c3ncc4c(N5CC6CCC(C5)N6)nc(OCCN5CCC(CC6CCN(CC7CCN(c8ccc9c(c8F)CN([C@H]8CCC(=O)NC8=O)C9=O)CC7)CC6)CC5)nc4c3F)c12` [Compound 214, (3S)-3-{5-[4-({4-[(1-{2-[(4-{3,8-diazabicyclo[3.2.1]octan-3-yl}-7-(8-ethynyl-7-fluoro-3-hydroxynaphthalen-1-yl)-8-fluoropyrido[4,3-d]pyrimidin-2-yl)oxy]ethyl}piperidin-4-yl)methyl]piperidin-1-yl}methyl)piperidin-1-yl]-4-fluoro-1-oxo-2,3-dihydro-1H-isoindol-2-yl}piperidine-2,6-dione] are > 70% and < 5.1 µM.
As for `C#Cc1c(F)ccc2cc(O)cc(-c3ncc4c(N5CC6CCC(C5)N6)nc(OCCN5CCC6(CC5)CN(CC5CCN(c7cc(C)c8c(c7F)CN(C7CCC(=O)NC7=O)C8=O)CC5)C6)nc4c3F)c12` (centres unmarked) [Compound 150], the 50% degradation concentration (DC50) is < 5.1 µM.
Take `C#Cc1c(F)ccc2cc(O)cc(-c3ncc4c(N5CC6CCC(C5)N6)nc(OCCN5CCC(CN6CCC(CC7CCN(c8ccc9c(c8Cl)CN(C8CCC(=O)NC8=O)C9=O)CC7)CC6)CC5)nc4c3F)c12` (centres unmarked) [Compound 81, 3-{4-chloro-5-[4-({1-[(1-{2-[(4-{3,8-diazabicyclo[3.2.1]octan-3-yl}-7-(8-ethynyl-7-fluoro-3-hydroxynaphthalen-1-yl)-8-fluoropyrido[4,3-d]pyrimidin-2-yl)oxy]ethyl}piperidin-4-yl)methyl]piperidin-4-yl}methyl)piperidin-1-yl]-1-oxo-2,3-dihydro-1H-isoindol-2-yl}piperidine-2,6-dione]: the Dmax is > 70% and the DC50 was < 5.1 µM.
Compound `CCc1cccc2cc(O)cc(-c3ncc4c(N5CC6CCC(C5)N6)nc(OCCN5CCC(CC6CCN(c7cccc8c7CN(C7CCC(=O)NC7=O)C8=O)CC6)CC5)nc4c3F)c12` (centres unmarked) [Compound 56, 3-[4-[4-[[1-[2-[4-(3,8-diazabicyclo[3.2.1]octan-3-yl)-7-(8-ethyl-3-hydroxy-1-naphthyl)-8-fluoro-pyrido[4,3-d]pyrimidin-2-yl]oxyethyl]-4-piperidyl]methyl]-1-piperidyl]-1-oxo-isoindolin-2-yl]piperidine-2,6-dione] registered a DC50 of 0.25 to 1 µM.
On to `C#Cc1c(F)ccc2cc(O)cc(-c3ncc4c(N5CC6CCC(C5)N6)nc(OCCN5CCC(CC6CCN(CC7CCN(c8cccc9c8CN(C8CCC(=O)NC8=O)C9=O)CC7)CC6)CC5)nc4c3F)c12` (centres unmarked) [Compound 43, 3-[4-[4-[[4-[[1-[2-[4-(3,8-diazabicyclo[3.2.1]octan-3-yl)-7-(8-ethynyl-7-fluoro-3-hydroxy-1-naphthyl)-8-fluoro-pyrido[4,3-d]pyrimidin-2-yl]oxyethyl]-4-piperidyl]methyl]-1-piperidyl]methyl]-1-piperidyl]-1-oxo-isoindolin-2-yl] piperidine-2,6-dione], for which the greatest degradation seen (Dmax) is > 70% and the DC50 is < 5.1 µM.
The corresponding values for `CCc1cccc2cc(O)cc(-c3ncc4c(N5CC6CCC(C5)N6)nc(OCCN5CCN(c6ccc7c(c6)CN(C6CCC(=O)NC6=O)C7=O)CC5)nc4c3F)c12` (centres unmarked) [Compound 39] are ≤ 25% and 0.25 to 1 µM.
For the compound `CCc1cccc2cc(O)cc(-c3ncc4c(N5CC6CCC(C5)N6)nc(OCCN5CCOC(CN6CCN(CC7CCN(c8ccc9c(c8)C(=O)N(C8CCC(=O)NC8=O)C9=O)CC7)CC6)C5)nc4c3F)c12` (centres unmarked) [Compound 21], the DC50 is 0.25 to 1 µM.
On the same count and under the same terms, the result for `CCc1cccc2cc(O)cc(-c3ncc4c(N5CC6CCC(C5)N6)nc(OCCN5CCC(C(C)(C)N6CCN(c7ccc8c(c7)C(=O)N(C7CCC(=O)NC7=O)C8=O)CC6)CC5)nc4c3F)c12` (centres unmarked) [Compound 13] reads 0.25 to 1 µM.
On the same count and under the same terms, under `CCc1cccc2cc(O)cc(-c3nc(N4CC5CCC(C4)N5)c4cnc(OCCN5CCC(CC6CCN(CC7CCN(c8cccc9c8CN(C8(C)CCC(=O)NC8=O)C9=O)CC7)CC6)CC5)nc4c3F)c12` (centres unmarked) [Compound 44] stands > 1 µM.
Turning to `C#Cc1c(F)ccc2cc(O)cc(-c3ncc4c(N5CC6CCC(C5)N6)nc(OCCN5CCC(CN6CCC(CC7CCN(c8ccc9c(c8F)CN(C8CCC(=O)NC8=O)C9=O)CC7)CC6)CC5)nc4c3F)c12` (centres unmarked) [Compound 88, 3-{5-[4-({1-[(1-{2-[(4-{3,8-diazabicyclo[3.2.1]octan-3-yl}-7-(8-ethynyl-7-fluoro-3-hydroxynaphthalen-1-yl)-8-fluoropyrido[4,3-d]pyrimidin-2-yl)oxy]ethyl}piperidin-4-yl)methyl]piperidin-4-yl}methyl)piperidin-1-yl]-4-fluoro-1-oxo-2,3-dihydro-1H-isoindol-2-yl}piperidine-2,6-dione], the Dmax was > 70% and the DC50 was < 5.1 µM.
Regarding `CCc1c(F)ccc2cc(O)cc(-c3ncc4c(N5CC6CCC(C5)N6)nc(OCCN5CCC(C)(CN6CCN(CC7CCN(c8ccc9c(c8)n(C)c(=O)n9C8CCC(=O)NC8=O)CC7)CC6)CC5)nc4c3F)c12` (centres unmarked) [Compound 180, 3-{5-[4-({4-[(1-{2-[(4-{3,8-diazabicyclo[3.2.1]octan-3-yl}-7-(8-ethyl-7-fluoro-3-hydroxynaphthalen-1-yl)-8-fluoropyrido[4,3-d]pyrimidin-2-yl)oxy]ethyl}-4-methylpiperidin-4-yl)methyl]piperazin-1-yl}methyl)piperidin-1-yl]-3-methyl-2-oxo-2,3-dihydro-1H-1,3-benzodiazol-1-yl}piperidine-2,6-dione], the maximal degradation (Dmax) is > 70% and the DC50 is < 5.1 µM.
The like results for `C#Cc1c(F)ccc2cc(O)cc(-c3ncc4c(N5CC6CCC(C5)N6)nc(OCCN5CCC(CC6CCN(CC7CCN(c8cccc9c8n(C(C)C)c(=O)n9C8CCC(=O)NC8=O)CC7)CC6)CC5)nc4c3F)c12` (centres unmarked) [Compound 94, 3-{4-[4-({4-[(1-{2-[(4-{3,8-diazabicyclo[3.2.1]octan-3-yl}-7-(8-ethynyl-7-fluoro-3-hydroxynaphthalen-1-yl)-8-fluoropyrido[4,3-d]pyrimidin-2-yl)oxy]ethyl}piperidin-4-yl)methyl]piperidin-1-yl}methyl)piperidin-1-yl]-2-oxo-3-(propan-2-yl)-2,3-dihydro-1H-1,3-benzodiazol-1-yl}piperidine-2,6-dione] were, in that order, > 70% and < 5.1 µM.
The compound `CCc1cccc2cc(O)cc(-c3ncc4c(N5CC6CCC(C5)N6)nc(OCCN5CCC(CN6CCN(c7cccc8c7CN(C7CCC(=O)NC7=O)C8=O)CC6)CC5)nc4c3F)c12` (centres unmarked) [Compound 9] came in with a 50% degradation concentration (DC50) of 0.25 to 1 µM.
As for `C#Cc1c(F)ccc2cc(O)cc(-c3ncc4c(N5CC6CCC(C5)N6)nc(OC[C@@H]5C[C@@H](OC6CCN(CC7CCN(c8ccc9c(c8)CN(C8CCC(=O)NC8=O)C9=O)CC7)CC6)CN5C)nc4c3F)c12` (some centres unmarked) [Compound 116], the Dmax was > 70% and the DC50 was < 5.1 µM.
